SMILES	melting point
O=S(=O)(NC1CC1)c1cccc(-c2cc(-c3nc(-c4ccc(C(F)(F)F)cc4)cc(C(F)(F)F)n3)ccn2)c1 [Example 409, N-Cyclopropyl-3-{4-[4-trifluoromethyl-6-(4-trifluoromethyl-phenyl)-pyrimidin-2-yl]-pyridin-2-yl}-benzenesulfonamide]	195.5 °C
NS(=O)(=O)c1cccc(-c2cccc(-c3nc(-c4ccc(Cl)cc4Cl)cc(C(F)(F)F)n3)c2)c1 [Example 410, 3′-[4-(2,4-Dichloro-phenyl)-6-trifluoromethyl-pyrimidin-2-yl]-biphenyl-3-sulfonic acid amide]	202 °C
NS(=O)(=O)c1ccc(-c2cccc(-c3nc(-c4ccc(Cl)cc4Cl)cc(C(F)(F)F)n3)c2)s1 [Example 411, 5-{3-[4-(2,4-Dichloro-phenyl)-6-trifluoromethyl-pyrimidin-2-yl]-phenyl}-thiophene-2-sulfonic acid amide]	237.5 °C
NS(=O)(=O)c1cccc(-c2cccc(-c3nc(-c4ccc(C(F)(F)F)cc4F)cc(C(F)(F)F)n3)c2)c1 [Example 412, 3′-[4-(2-Fluoro-4-trifluoromethyl-phenyl)-6-trifluoromethyl-pyrimidin-2-yl]-biphenyl-3-sulfonic acid amide]	224.5 °C
NS(=O)(=O)c1ccc(-c2cccc(-c3nc(-c4ccc(C(F)(F)F)cc4F)cc(C(F)(F)F)n3)c2)s1 [Example 413, 5-{3-[4-(2-Fluoro-4-trifluoromethyl-phenyl)-6-trifluoromethyl-pyrimidin-2-yl]-phenyl}-thiophene-2-sulfonic acid amide]	192 °C
Cc1cc(-c2cc(C(F)(F)F)nc(-c3ccnc(-c4ccc(S(N)(=O)=O)s4)c3)n2)ccc1Cl [Example 414, 5-{4-[4-(4-Chloro-3-methyl-phenyl)-6-trifluoromethyl-pyrimidin-2-yl]-pyridin-2-yl}-thiophene-2-sulfonic acid amide]	280 °C
Cc1cc(-c2cc(C(F)(F)F)nc(-c3ccnc(-c4cccc(S(N)(=O)=O)c4)c3)n2)ccc1Cl [Example 415, 3-{4-[4-(4-Chloro-3-methyl-phenyl)-6-trifluoromethyl-pyrimidin-2-yl]-pyridin-2-yl}-benzenesulfonamide]	234 °C
Cc1cc(-c2ccc(C(F)(F)F)c(C)c2)nc(-c2cccc(-c3cccc(S(N)(=O)=O)c3)c2)n1 [Example 416, 3′-[4-Methyl-6-(3-methyl-4-trifluoromethyl-phenyl)-pyrimidin-2-yl]-biphenyl-3-sulfonic acid amide]	222.5 °C
Cc1cc(-c2ccc(C(F)(F)F)c(C)c2)nc(-c2cccc(-c3ccc(S(N)(=O)=O)s3)c2)n1 [Example 417, 5-{3-[4-Methyl-6-(3-methyl-4-trifluoromethyl-phenyl)-pyrimidin-2-yl]-phenyl}-thiophene-2-sulfonic acid amide]	242 °C
Cc1cc(-c2ccc(C(F)(F)F)cc2)nc(-c2cccc(-c3cccc(S(=O)(=O)NC(C)(C)C)c3)n2)n1 [Example 418, N-tert-Butyl-3-{6-[4-methyl-6-(4-trifluoromethyl-phenyl)-pyrimidin-2-yl]-pyridin-2-yl}-benzenesulfonamide]	> 250 °C
Cc1cc(-c2ccc(C(F)(F)F)cc2)nc(-c2cccc(-c3cccc(S(N)(=O)=O)c3)n2)n1 [Example 419, 3-{6-[4-Methyl-6-(4-trifluoromethyl-phenyl)-pyrimidin-2-yl]-pyridin-2-yl}-benzenesulfonamide]	239 °C (dec.)
CNS(=O)(=O)c1cccc(-c2cccc(-c3cc(-c4ccc(C(F)(F)F)cc4)cc(C)n3)n2)c1 [Example 422, N-Methyl-3-[6′-methyl-4′-(4-trifluoromethyl-phenyl)-[2,2′]bipyridinyl-6-yl]-benzenesulfonamide]	176 °C
Cc1cc(-c2ccc(C(F)(F)F)cc2)cc(-c2cccc(-c3cccc(S(=O)(=O)N(C)C)c3)n2)n1 [Example 423, N,N-Dimethyl-3-[6′-methyl-4′-(4-trifluoromethyl-phenyl)-[2,2′]bipyridinyl-6-yl]-benzenesulfonamide]	155 °C
Cc1cc(-c2ccc(C(F)(F)F)cc2)cc(-c2cccc(-c3cccc(S(=O)(=O)NC4CC4)c3)n2)n1 [Example 424, N-Cyclopropyl-3-[6′-methyl-4′-(4-trifluoromethyl-phenyl)-[2,2′]bipyridinyl-6-yl]-benzenesulfonamide]	150 °C
Cc1cc(-c2ccc(C(F)(F)F)cc2)cc(-c2cccc(-c3cccc(S(=O)(=O)N(C)C4CC4)c3)n2)n1 [Example 425, N-Cyclopropyl-N-methyl-3-[6′-methyl-4′-(4-trifluoromethyl-phenyl)-[2,2′]bipyridinyl-6-yl]-benzenesulfonamide]	157 °C
Cc1cc(-c2ccc(C(F)(F)F)cc2)cc(-c2cccc(-c3cccc(S(=O)(=O)N4CCC4)c3)n2)n1 [Example 426, 6′-[3-(Azetidine-1-sulfonyl)-phenyl]-6-methyl-4-(4-trifluoromethyl-phenyl)-[2,2′]bipyridinyl]	158 °C
Cc1cc(-c2ccc(C(F)(F)F)cc2)cc(-c2cccc(-c3cccc(S(=O)(=O)N4CCC(O)CC4)c3)n2)n1 [Example 427, 1-{3-[6′-Methyl-4′-(4-trifluoromethyl-phenyl)-[2,2′]bipyridinyl-6-yl]-benzenesulfonyl}-piperidin-4-ol]	195 °C
Cc1cc(-c2ccc(C(F)(F)F)cc2)cc(-c2cccc(-c3cccc(S(=O)(=O)N4CC(O)C4)c3)n2)n1 [Example 428, 1-{3-[6′-Methyl-4′-(4-trifluoromethyl-phenyl)-[2,2′]bipyridinyl-6-yl]-benzenesulfonyl}-azetidin-3-ol]	205 °C
COC1CCN(S(=O)(=O)c2cccc(-c3cccc(-c4cc(-c5ccc(C(F)(F)F)cc5)cc(C)n4)n3)c2)CC1 [Example 429, 6′-[3-(4-Methoxy-piperidine-1-sulfonyl)-phenyl]-6-methyl-4-(4-trifluoromethyl-phenyl)-[2,2′]bipyridinyl]	107 °C
Cc1cc(-c2ccc(C(F)(F)F)cc2)cc(-c2cccc(-c3cccc(S(=O)(=O)NCc4ccccc4)c3)n2)n1 [Example 431, N-Benzyl-3-[6′-methyl-4′-(4-trifluoromethyl-phenyl)-[2,2′]bipyridinyl-6-yl]-benzenesulfonamide]	168 °C
COc1ccc(CNS(=O)(=O)c2cccc(-c3cccc(-c4cc(-c5ccc(C(F)(F)F)cc5)cc(C)n4)n3)c2)cc1 [Example 432, N-(4-Methoxy-benzyl)-3-[6′-methyl-4′-(4-trifluoromethyl-phenyl)-[2,2′]bipyridinyl-6-yl]-benzenesulfonamide]	126 °C (dec.)

Other lines, results leading:

melting point	SMILES
175 °C	Cc1cc(-c2ccc(C(F)(F)F)cc2)cc(-c2cccc(-c3cccc(S(=O)(=O)NCc4ccc(F)cc4)c3)n2)n1 [Example 433, N-(4-Fluoro-benzyl)-3-[6′-methyl-4′-(4-trifluoromethyl-phenyl)-[2,2′]bipyridinyl-6-yl]-benzenesulfonamide]
134 °C (dec.)	Cc1cc(-c2ccc(C(F)(F)F)cc2)cc(-c2cccc(-c3cccc(S(=O)(=O)N4CCC(Oc5ncccn5)CC4)c3)n2)n1 [Example 435, 6-Methyl-6′-{3-[4-(pyrimidin-2-yloxy)-piperidine-1-sulfonyl]-phenyl}-4-(4-trifluoromethyl-phenyl)-[2,2′]bipyridinyl]
148 °C	Cc1cc(-c2ccc(OC(F)(F)F)cc2)cc(-c2cccc(-c3cccc(S(=O)(=O)NC(C)(C)C)c3)n2)n1 [Example 436, N-tert-Butyl-3-[6′-methyl-4′-(4-trifluoromethoxy-phenyl)-[2,2′]bipyridinyl-6-yl]-benzenesulfonamide]
231 °C (dec.)	Cc1cc(-c2ccc(OC(F)(F)F)cc2)cc(-c2cccc(-c3cccc(S(N)(=O)=O)c3)n2)n1 [Example 437, 3-[6′-Methyl-4′-(4-trifluoromethoxy-phenyl)-[2,2′]bipyridinyl-6-yl]-benzenesulfonamide]
150 °C (dec.)	Cc1cc(-c2ccc(C(F)(F)F)c(C)c2)cc(-c2cccc(-c3cccc(S(=O)(=O)NC(C)(C)C)c3)n2)n1 [Example 438, N-tert-Butyl-3-[6′-methyl-4′-(3-methyl-4-trifluoromethyl-phenyl)-[2,2′]bipyridinyl-6-yl]-benzenesulfonamide]
213 °C (dec.)	NS(=O)(=O)c1cccc(-c2cccc(-c3cc(-c4ccc(C(F)(F)F)cc4)cc(CO)n3)n2)c1 [Example 439, 3-[6′-Hydroxymethyl-4′-(4-trifluoromethyl-phenyl)-[2,2′]bipyridinyl-6-yl]-benzenesulfonamide]
> 250 °C	Cc1cc(-c2ccc(C(F)(F)F)c(C)c2)cc(-c2cccc(-c3cccc(S(N)(=O)=O)c3)n2)n1 [Example 440, 3-[6′-Methyl-4′-(3-methyl-4-trifluoromethyl-phenyl)-[2,2′]bipyridinyl-6-yl]-benzenesulfonamide]
255 °C	Cc1cc(-c2ccc(C#N)cc2)nc(-c2cccc(-c3cccc(S(N)(=O)=O)c3)n2)n1 [Example 442, 3-{6-[4-(4-Cyano-phenyl)-6-methyl-pyrimidin-2-yl]-pyridin-2-yl}-benzenesulfonamide]
244 °C	CC(=O)NS(=O)(=O)c1cccc(-c2cccc(-c3cc(-c4ccc(C(F)(F)F)cc4)cc(C)n3)n2)c1 [Example 443, N-Acetyl-3-[6′-methyl-4′-(4-trifluoromethyl-phenyl)-[2,2′]bipyridinyl-6-yl]-benzenesulfonamide]
163 °C (dec.)	Cc1cc(-c2ccc(C(F)(F)F)cc2)cc(-c2cccc(-c3cccc(S(=O)(=O)NC4CCOCC4)c3)n2)n1 [Example 444, 3-[6′-Methyl-4′-(4-trifluoromethyl-phenyl)-[2,2′]bipyridinyl-6-yl]-N-(tetrahydro-pyran-4-yl)-benzenesulfonamide]
135 °C	CCNS(=O)(=O)c1cccc(-c2cccc(-c3cc(-c4ccc(C(F)(F)F)cc4)cc(C)n3)n2)c1 [Example 446, N-Ethyl-3-[6′-methyl-4′-(4-trifluoromethyl-phenyl)-[2,2′]bipyridinyl-6-yl]-benzenesulfonamide]

— patent publication US8183262B2, “Pyridine derivatives as mGluR2 antagonists” (Hoffmann-La Roche Inc., priority 2007, dated 2012)
